Columns and labels:
[1] = test system: GLUT2 mRNA; test: Slot-blot quantitation of GLUT2 mRNA in pancreata and islets; format: in vivo, rat
Text: The rats were implanted with an Alzet micro-osmotic pump (Alza Corp., Palo Alto, Calif.) in the interscapular region for 48 hrs. […] Control animals received normal saline in their pumps and received their infusion for the same length of time.
After an overnight fast, animals were sacrificed, pancreata were removed and frozen in liquid nitrogen as quickly as possible. RNA was extracted by homogenization in guanidinium isothiocyanate, followed by ultracentrifugation on a 5.7 M cesium chloride cushion (Glisin et al., 1974; Chigwin et al., 1979). Poly-A RNA was then prepared from total RNA by affinity chromatography using oligo (dT) columns (Biolabs INC, Beverly, Mass.). RNA was quantified by spectrophotometric analysis at […]. Slot-blot analysis using poly-A RNA was used for quantitation of mRNA levels of glucokinase, which is the main glucose sensor of the beta cell (Matschinsky, 1990), the three hexokinases, GLUT2, the major glucose transporter of the beta cell (Mueckler, 1990), and insulin. Four micrograms of poly-A RNA were diluted in 50 μl TE buffer (Tris-HCL 10 mM, EDTA 1 mM, pH 7.4), 20 μl of 37% formaldehyde and 20 μl of 10× SSC. Samples were incubated at 60° C. for 15 min and then diluted with 1 ml of ice-cold 10× SSC (1×SCC=0.15 M NaCl+0.015 sodium citrate). […]

[2] = test system: AR42J cells; test: RT-PCR of insulin and glucagon mRNA in AR42J cells; format: cell-based, rat
Method: Reverse-transcription polymerase chain reaction (RT-PCR). Total RNA was isolated from treated AR42J cells by the methods of Chomczynski and Sacchi (1987). The total RNA samples were pretreated with DNAse in 20 mM Tris-HCL (pH 8.4), 2 mM MgCl2 and 50 mM KCl to remove any traces of contaminating genomic DNA. RT-PCR was undertaken in a volume of 50 μl of buffer containing 50 mM KCl, 10 mM Tris-HCl, 3.5 mM MgCl2, 200 μM each dNTPs, 0.4 μM each of sense and antisense primers to rat insulin I and II (insulin sense primer=5′[…]3′; insulin antisense primer=5′[…] 3′). Amplification was undertaken for 25 cycles at denaturing temperature 94° C. for 1 min, annealing temperature 60° C. for 45 sec and an extension temperature 72° C. for 1 min. mRNA from RIN 1046-38 cells were used as a positive control. In the case of glucagon RT-PCR, the denaturing and extension temperature was similar to insulin except the annealing temperature was 65° C. for 1 min (glucagon sense primer=5′ […]3′; antisense primer=5′ […]3′). The RT-PCR products were visualized by ethidium bromide staining on 2% agarose gels.

[3] = test system: non-diabetic mice; test: Daily ip exendin-4 in non-diabetic littermates; format: in vivo, mouse
Text: Animals. Four month old Wistar rats from the Wistar colony in the NIA (Baltimore, Md.) were used for the acute experiments of the effects of exendin-4 and GLP-1 (see Example 1). They had been maintained on standard lab chow and fed ad libitum. For the long-term experiments, diabetic mice (C57BLKS/J-Lepr^db/Lepr^db) lacking the leptin receptor, and their non-diabetic littermates were purchased at 4 weeks of age from Jackson Laboratories (Bar Harbor, Me.). They were housed two per cage and also were fed ad libitum. The same mice were caged together for the duration of the study. Wistar rats are caged on wire while the bedding for the mice was a paper based product, “Carefresh” (Absorption Co., Bellingham, Wash.).
Eleven diabetic and 10 non-diabetic animals received […] exendin-4 ip daily thereafter (7–9 am) while 10 diabetic and 10 non-diabetic animals received ip NaCl. Subsequently, whole blood glucose levels, taken from a retro-orbital sinus, were determined in the mice using a Glucometer Elite (Bayer). This regimen was continued for 12–13 weeks. […] Animals were weighed weekly. After one week of the regimen blood samples were again taken from a retro-orbital sinus for determination of insulin and glucose levels. At the end of the regimen, fasting blood samples were obtained for glucose and insulin levels and whole blood containing EDTA was assayed for hemoglobin A1c (Hb A1c) on the same day from the four groups.
Assays. Plasma glucose was measured by the glucose oxidase method (Wang et al., 1997). Insulin was measured by RIA as previously described (See Example 1). Hb A1c was assayed using a BIO-RAD (Herculas Calif.) DiaSTAT machine which uses low pressure cation exchange chromatography in conjunction with gradient elution to separate hemoglobin subtypes and variants from hemolyzed blood. The separated hemoglobin fractions were monitored by means of absorption of light at 415 nm.

[4] = test system: beta cells of the pancreas; details: Goke et al., 1993; cited from earlier work
[5] = test system: rat acinar cells; details: Malhotra et al. 1992, cited from earlier work

Row | Compound | effect on decreased GLUT-2 mRNA levels ([1]; old animals (decreased by 70% vs young controls), P<0.001) | effect on GLUT2 mRNA levels ([1]; young animals) | rat insulin I and II mRNA by RT-PCR ([2]; GLP-1-treated for 3 days, none in non-treated cells) | glucagon mRNA at 236 bp by RT-PCR ([2]; GLP-1-treated, 48 h) | trends in glucose and insulin ([3]; 12–13 weeks) | Hb A1c ([3]; 12–13 weeks, p=0.0002) [%] | fasting glucose level after one week of treatment ([3]; NaCl-treated 135±5, p<0.05) [mg/dL] | deaths just after receiving exendin-4 ([3]; day eight) | lowest concentrations increasing cAMP and insulin secretion [4] | total amylase released ([5]; CCK alone vs 10^−8 M exendin-4 and CCK together) [%] | concentration at which increased cAMP was seen [5]
1 | CC[C@H](C)[C@H](NC(=O)[C@H](Cc1ccccc1)NC(=O)[C@H](CCC(=O)O)NC(=O)[C@H](CCCCN)NC(=O)[C@H](C)NC(=O)[C@H](C)NC(=O)[C@H](CCC(N)=O)NC(=O)CNC(=O)[C@H](CCC(=O)O)NC(=O)[C@H](CC(C)C)NC(=O)[C@H](Cc1ccc(O)cc1)NC(=O)[C@H](CO)NC(=O)[C@H](CO)NC(=O)[C@@H](NC(=O)[C@H](CC(=O)O)NC(=O)[C@H](CO)NC(=O)[C@@H](NC(=O)[C@H](Cc1ccccc1)NC(=O)[C@@H](NC(=O)CNC(=O)[C@H](CCC(=O)O)NC(=O)[C@H](C)NC(=O)[C@@H](N)Cc1c[nH]cn1)[C@@H](C)O)[C@@H](C)O)C(C)C)C(=O)N[C@@H](C)C(=O)N[C@@H](Cc1c[nH]c2ccccc12)C(=O)N[C@@H](CC(C)C)C(=O)N[C@H](C(=O)N[C@@H](CCCCN)C(=O)NCC(=O)N[C@@H](CCCNC(=N)N)C(N)=O)C(C)C [GLP-1] | entirely reversed | did not significantly influence | demonstrated a 187 bp rat insulin I and II mRNA | detected | – | – | – | – | – | – | –
2 | exendin-4 | – | – | – | – | the same in the non-diabetic animals with exendin-4 treatment though not as dramatic | 3.5 | 70 ± 25 | two of the non-diabetic mice | 10^−10 M | 16 | 10^−8 M
